# Test system: Staphylococcus aureus ATCC25923
# Assay: Disc diffusion test of inhibition zone
# Format: cell-based
# Details: HN019 1×10^8 CFU; gentamicin 200 μg/mL; 37° C., 18 hours
# Experimental: Discs were prepared with sterile filter paper, the test substances HMO (10 mg/mL, 30 mg/mL) or probiotic (1×10^8 CFU) were introduced thereto, and the discs were dried overnight under sterile conditions. Staphylococcus aureus ATCC25923 (1.0×10^6 CFU/mL) was uniformly applied on the surface of an NGM agar plate, and then the discs were placed on the surface of the inoculated agar plate. Gentamicin (200 μg/mL) was used as a positive control. All plates were incubated at 37° C. for 18 hours.
substance,measurement,value
Gentamicin,transparent inhibition zone around disc (direct antibacterial effect),formation of a transparent inhibition zone

# From patent publication US20240000868A1, “Composition Containing Bifidobacterium Lactis and Human Milk Oligosaccharides and Application Thereof” (Inner Mongolia Yili Industrial Group Co., Ltd., priority 2020, published 2024)
